Test results taken from article PMC10819888, “Benzimidazole-Based Derivatives as Apoptotic Antiproliferative Agents: Design, Synthesis, Docking, and Mechanistic Studies” (Molecules, 2024).

Columns and labels:
Experiment in all cases: NCI-60 one-dose assay
Format in all cases: cell-based
[1] = tested on: DU-145; conditions: Homo sapiens, DU-145 (Prostate Cancer), read-out: Cell Inhibition Percent
[2] = tested on: HL-60(TB); conditions: Homo sapiens, HL-60(TB) (Leukemia), read-out: Cell Inhibition Percent
[3] = tested on: ACHN; conditions: Homo sapiens, ACHN (Renal Cancer), read-out: Cell Inhibition Percent
[4] = tested on: A549/ATCC; conditions: Homo sapiens, A549/ATCC (Non-Small Cell Lung Cancer), read-out: Cell Inhibition Percent
[5] = tested on: T-47D; conditions: Homo sapiens, T47D, T-47D (Breast Cancer), read-out: Cell Inhibition Percent
[6] = tested on: TK-10; conditions: Homo sapiens, TK-10 (Renal Cancer), read-out: Cell Inhibition Percent
[7] = tested on: MCF7; conditions: Homo sapiens, MCF7 (Breast Cancer), read-out: Cell Inhibition Percent
[8] = tested on: A498; conditions: Homo sapiens, A498 (Renal Cancer), read-out: Cell Inhibition Percent
[9] = tested on: MALME-3M; conditions: Homo sapiens, MALME-3M (Melanoma), read-out: Cell Inhibition Percent
[10] = tested on: M14; conditions: Homo sapiens, M14 (Melanoma), read-out: Cell Inhibition Percent
[11] = tested on: BT-549; conditions: Homo sapiens, BT-549 (Breast Cancer), read-out: Cell Inhibition Percent
[12] = tested on: EKVX; conditions: Homo sapiens, EKVX (Non-Small Cell Lung Cancer), read-out: Cell Inhibition Percent
[13] = tested on: SK-MEL-5; conditions: Homo sapiens, SK-MEL-5 (Melanoma), read-out: Cell Inhibition Percent
[14] = tested on: NCI-H460; conditions: Homo sapiens, NCI-H460 (Non-Small Cell Lung Cancer), read-out: Cell Inhibition Percent
[15] = tested on: NCI-H522; conditions: Homo sapiens, NCI-H522 (Non-Small Cell Lung Cancer), read-out: Cell Inhibition Percent
[16] = tested on: MOLT-4; conditions: Homo sapiens, MOLT-4 (Leukemia), read-out: Cell Inhibition Percent
[17] = tested on: SK-MEL-2; conditions: Homo sapiens, SK-MEL-2 (Melanoma), read-out: Cell Inhibition Percent
[18] = tested on: SNB-19; conditions: Homo sapiens, SNB-19 (CNS cancer), read-out: Cell Inhibition Percent
[19] = tested on: HS 578T; conditions: Homo sapiens, HS 578T (Breast Cancer), read-out: Cell Inhibition Percent
[20] = tested on: NCI-H226; conditions: Homo sapiens, NCI-H226 (Non-Small Cell Lung Cancer), read-out: Cell Inhibition Percent
[21] = tested on: HOP-62; conditions: Homo sapiens, HOP-62 (Non-Small Cell Lung Cancer), read-out: Cell Inhibition Percent
[22] = tested on: NCI/ADR-RES; conditions: Homo sapiens, NCI/ADR-RES (ovarian cancer), read-out: Cell Inhibition Percent
[23] = tested on: SN12C; conditions: Homo sapiens, SN12C (Renal Cancer), read-out: Cell Inhibition Percent
[24] = tested on: LOX IMVI; conditions: Homo sapiens, LOX IMVI (Melanoma), read-out: Cell Inhibition Percent
[25] = tested on: NCI-H23; conditions: Homo sapiens, NCI-H23 (Non-Small Cell Lung Cancer), read-out: Cell Inhibition Percent
[26] = tested on: HT29; conditions: Homo sapiens, HT-29, HT29 (Colon Cancer), read-out: Cell Inhibition Percent
[27] = tested on: MDA-MB 231; conditions: Homo sapiens, MDA-MB 231 (Breast Cancer), read-out: Cell Inhibition Percent
[28] = tested on: SW-620; conditions: Homo sapiens, SW-620 (Colon Cancer), read-out: Cell Inhibition Percent
[29] = tested on: SF-268; conditions: Homo sapiens, SF-268 (CNS cancer), read-out: Cell Inhibition Percent

| Structure (SMILES) | inhibition at 10 µM [1] | inhibition at 10 µM [2] | inhibition at 10 µM [3] | inhibition at 10 µM [4] | inhibition at 10 µM [5] | inhibition at 10 µM [6] | inhibition at 10 µM [7] | inhibition at 10 µM [8] | inhibition at 10 µM [9] | inhibition at 10 µM [10] | inhibition at 10 µM [11] | inhibition at 10 µM [12] | inhibition at 10 µM [13] | inhibition at 10 µM [14] | inhibition at 10 µM [15] | inhibition at 10 µM [16] | inhibition at 10 µM [17] | inhibition at 10 µM [18] | inhibition at 10 µM [19] | inhibition at 10 µM [20] | other results |
| --- | --- | --- | --- | --- | --- | --- | --- | --- | --- | --- | --- | --- | --- | --- | --- | --- | --- | --- | --- | --- | --- |
| O=C(NN=Cc1ccccc1)c1ccc2[nH]c(-c3ccc(Cl)cc3)nc2c1 [Compound 4a, N′-Benzylidene-2-(4-chlorophenyl)-1H-benzimidazole-5-carbohydrazide] | 3.83% | 0% | 3.26% | 0% | 18.2% | 0% | 23.5% | 22.1% | 1.28% | 8.89% | 4.12% | 1.38% | 4.85% | 0% | 1% | 12.9% | 0% | 0% | 7.92% | 5.74% | inhibition at 10 µM [21]: 0%; inhibition at 10 µM [22]: 0%; inhibition at 10 µM [23]: 3.99%; inhibition at 10 µM [24]: 7.23%; inhibition at 10 µM [25]: 1.85%; inhibition at 10 µM [26]: 3.67%; inhibition at 10 µM [27]: 0%; inhibition at 10 µM [28]: 0%; inhibition at 10 µM [29]: 0% |
| CN(C)c1ccc(C=NNC(=O)c2ccc3[nH]c(-c4ccc(Cl)cc4)nc3c2)cc1 [Compound 4b, N′-(4-(Dimethylamino)benzylidene)-2-(4-chlorophenyl)-1H-benzimidazole-5-carbohydrazide] | 0% | 0% | 1.36% | 0% | 14.1% | 0% | 23.8% | 12.9% | 12.9% | 3.58% | 0% | 2.85% | 5.02% | 2.77% | 3.02% | 3.18% | 0% | 0% | 6.32% | 4.67% | inhibition at 10 µM [21]: 2.51%; inhibition at 10 µM [22]: 0.43%; inhibition at 10 µM [23]: 1.47%; inhibition at 10 µM [24]: 3.7%; inhibition at 10 µM [25]: 1.51%; inhibition at 10 µM [26]: 2.26%; inhibition at 10 µM [27]: 15.6%; inhibition at 10 µM [28]: 0%; inhibition at 10 µM [29]: 0.73% |
| O=C(NN=Cc1ccc(F)cc1)c1ccc2[nH]c(-c3ccc(Cl)cc3)nc2c1 [Compound 4d, N′-(4-Fluorobenzylidene)-2-(4-chlorophenyl)-1H-benzimidazole-5-carbohydrazide] | 14.6% | 62.6% | 64.3% | 82.2% | 40.6% | 5.63% | 82.6% | 27.1% | 88.2% | 39.8% | 0% | 26.8% | 11% | 63.8% | 3.87% | 76.5% | 16.7% | 39.6% | 30% | 6.86% | inhibition at 10 µM [21]: 39.5%; inhibition at 10 µM [22]: 23%; inhibition at 10 µM [23]: 58.8%; inhibition at 10 µM [24]: 66%; inhibition at 10 µM [25]: 38.6%; inhibition at 10 µM [26]: 95.7%; inhibition at 10 µM [27]: 36.1%; inhibition at 10 µM [28]: 53.7%; inhibition at 10 µM [29]: 21.8% |
| O=C(NN=Cc1ccc(Cl)cc1Cl)c1ccc2[nH]c(-c3ccc(Cl)cc3)nc2c1 [Compound 4f, N′-(2,4-Dichlorobenzylidene)-2-(4-chlorophenyl)-1H-benzimidazole-5-carbohydrazide] | 0% | 5.98% | 9.01% | 4.7% | 12.3% | 0% | 13.4% | 36.7% | 9.55% | 17.1% | 0% | 13.7% | 2.92% | 1.37% | 7.79% | 72.6% | 2.9% | 7.76% | 10.4% | 18.8% | inhibition at 10 µM [21]: 5.89%; inhibition at 10 µM [22]: 0%; inhibition at 10 µM [23]: 1.23%; inhibition at 10 µM [24]: 18.9%; inhibition at 10 µM [25]: 4.26%; inhibition at 10 µM [26]: 2.18%; inhibition at 10 µM [27]: 11.4%; inhibition at 10 µM [28]: 4.3%; inhibition at 10 µM [29]: 3.63% |
| COc1cc(/C=N/NC(=O)c2ccc3[nH]c(-c4ccc(Cl)cc4)nc3c2)cc(OC)c1OC [Compound 4h, N′-(3,4,5-Trimethoxybenzylidene)-2-(4-chlorophenyl)-1H-benzimidazole-5 carbohydrazide] | 2.57% | 55.1% | 32.3% | 14.2% | 84.1% | 22.6% | 87.9% | 102% | 71.6% | 58% | 29.3% | 4.23% | 58.1% | 17.2% | 21.7% | 58.5% | 16.4% | 29% | 51.7% | 24% | inhibition at 10 µM [21]: 18.3%; inhibition at 10 µM [22]: 0%; inhibition at 10 µM [23]: 31.5%; inhibition at 10 µM [24]: 49.4%; inhibition at 10 µM [25]: 46.3%; inhibition at 10 µM [26]: 60.1%; inhibition at 10 µM [27]: 0%; inhibition at 10 µM [28]: 21.3%; inhibition at 10 µM [29]: 20.3% |
| O=C(N/N=C/c1ccc(O)cc1)c1ccc2[nH]c(-c3ccc(Cl)cc3)nc2c1 [Compound 4i, N′-(4-Hydroxybenzylidene)-2-(4-chlorophenyl)-1H-benzimidazole-5-carbohydrazide] | 0% | 0% | 4.33% | 0% | 24.2% | 0% | 25.1% | 5.34% | 21.4% | 0.44% | 0% | 0% | 4.32% | 0% | 9.85% | 15.6% | 0% | 0% | 5.94% | 20.6% | inhibition at 10 µM [21]: 0%; inhibition at 10 µM [22]: 0%; inhibition at 10 µM [23]: 0%; inhibition at 10 µM [24]: 11.9%; inhibition at 10 µM [25]: 4.44%; inhibition at 10 µM [26]: 0%; inhibition at 10 µM [27]: 2.75%; inhibition at 10 µM [28]: 0%; inhibition at 10 µM [29]: 13.7% |
